# From PubChem BioAssay AID1996
# Conditions: buffer; pH 7.4; 200.0 µM
row,SMILES,solubility kinetic [µg/mL]
1,COc1cc2c(cc1OC)C(c1ccccc1O)NCC2 (stereo not given),37.3
2,CC(=O)N1c2ccccc2C2(C)C(C1(C)C)C2(Cl)Cl (stereo not given),6.1
3,Cc1cc(C(=O)CN2C(=O)C(=O)N(Cc3ccccc3)C2=O)c(C)n1Cc1ccccc1,4
4,CCC1CCCCN1Cc1ccc(N)cc1 (stereo not given),> 32.8
5,COc1ccc(C(C)NC(=O)c2ccncc2)cc1 (stereo not given),36.2
6,c1ccc(-c2cccc(-c3ccccc3)n2)cc1,< 0.5
7,COc1ccc(CN(C)CC(=O)Nc2ccccc2C(=O)NC2CC2)cc1F,56
8,COc1cc(C)cc(CN2CCC(Cc3ccccc3)CC2)c1O,44.5
9,CC(=O)Nc1ccc(C(=O)Nc2ccc3c(c2)OCCO3)cc1,22.8
10,COc1cccc(C(=O)CC(=O)C(=O)Nc2cccc([N+](=O)[O-])c2C)c1,31.6
11,Cc1ccsc1/C=N/N1CCOCC1,> 31.5
12,C=CCCC(=O)N1CCCC(Cc2cccc(Cl)c2)(C(=O)OCC)C1 (stereo not given),> 54.6
13,CCN(CC(=O)NCc1ccc2c(c1)OCO2)S(=O)(=O)c1ccc(F)cc1,55.6
14,c1ccc(OCCCn2ccnc2)cc1,25.1
15,Cc1ccc2[nH]c3c(c2c1)CCCC3NC(=O)CCl (stereo not given),> 41.5
16,CCC(=O)c1ccc(OCC(=O)OCC(=O)N(CCC#N)c2ccc3c(c2)OCCO3)cc1,47.5
17,CN(CC(=O)Nc1ccccc1F)Cc1cccs1,30.1
18,Cc1cc(N2CCC(C)CC2)nc(-c2ccccc2O)n1,< 0.2
19,O=[N+]([O-])c1cccc(CNC2CCCCCC2)c1,24.6
20,O=S(=O)(NCCC1=CCCCC1)c1ccc(F)cc1,16.9

row,SMILES,solubility kinetic [µg/mL]
1,O=C(CN1CCCC1)Nc1ccc([N+](=O)[O-])cc1,> 37.4
2,CCc1ccc(N(CC)C(=O)c2cn(C)c(=O)c3ccccc23)cc1,> 50.2
3,CCSc1ncccc1C(=O)N[C@@H](CCSC)C(=O)OC,36.1
4,CCc1nc(-c2ccccc2)c2ccccn12.O=C(O)C(=O)O,38.1
5,Cc1ccc(C(=O)OCC(=O)N2CC(C)OC(C)C2)cc1 (stereo not given),> 43.7
6,COc1cc(NC(=S)N2CCN(CCO)CC2)cc(OC)c1,> 48.8
7,COc1ccc(Br)cc1/C=C/C(=O)OCC(=O)NCCc1ccc(S(N)(=O)=O)cc1,13.8
8,COc1cc(CC(=O)OCC(=O)N2CCCCC2)cc(OC)c1OC,46.5
9,Cc1ccc(CNc2ccc3c(c2)ncn3C(C)C)cc1,> 41.9
10,O=C(Nc1ccccc1)Nc1cccc(-c2cn3cccnc3n2)c1,1
11,CCCN(CCC)C(=O)Nc1cc(Cl)ccc1OC,31.9
12,c1ccc2c(NCCc3c[nH]c4ccccc34)c3ccccc3nc2c1,> 50.6
13,CC(=O)c1c(C)[nH]c(C(=O)CN2CCN(S(=O)(=O)c3ccccc3F)CC2)c1C,6.4
14,CCOC(=O)c1nc(Nc2ccc(OC)cc2)c2ccccc2n1,> 48.5
15,CCOC(=O)c1c(Cc2ccccc2)c[nH]c1C,30.9
16,O=C(O)/C=C/c1cccc(NC(=O)c2ccccc2)c1,34
17,Cc1ccc(CNS(=O)(=O)c2c(N)n(C)c(=O)n(C)c2=O)cc1,41.3
18,COc1ccc(C(CNC(=O)c2cc(S(=O)(=O)N3CCN(c4ccccc4)CC3)ccc2Cl)N(C)C)cc1 (stereo not given),49.4
19,CC(C)CCN1CCN(Cc2cccn2-c2cccnc2)CC1CCO (stereo not given),> 53.5
20,COC(=O)c1[nH]c2ccccc2c1NC(=O)C(C)N1CCOCC1 (stereo not given),> 49.7

row,SMILES,solubility kinetic [µg/mL]
1,N#CCN1CCC2(O)CCCCC2C1c1ccc2c(c1)OCO2 (stereo not given),42
2,COc1ccc(C(=O)N2CCCC(Nc3ccc(C)c(C)c3)C2)cc1 (stereo not given),40.5
3,Cc1nc(C)c(-c2csc(Nc3ncccc3C)n2)s1,< 0.2
4,CCN1CCN(CCC(=O)Nc2ccccc2)CC1,> 39.2
5,CN(C(=O)COC(=O)c1cc2ccccc2cc1O)c1ccccc1,3.4
6,CN1CCN(c2ccc([N+](=O)[O-])c(SCCO)c2)CC1,> 44.6
7,Cc1ccc(Nc2cc(=O)[nH]c(=O)[nH]2)cc1Cl,2
8,Cc1cc(C(=O)COC(=O)c2cccc(NS(C)(=O)=O)c2)c(C)n1CC1CCCO1 (stereo not given),43.5
9,CCNC(=O)c1c(O)c2c([nH]c1=O)CCCC2,3
10,OCCC1CN(CC#Cc2ccccc2)CCN1C1CCCC1 (stereo not given),> 46.9
11,CCOC(=O)c1cc2c(nc1N)CCCC2,24.7
12,Cc1nc(NC(=O)c2ccc(Br)o2)ccc1Br,< 0.4
13,Cc1ccc(NC(=O)Cn2c(=O)oc3ccccc32)cc1C,4.2
14,O=C(O)CN1C(=O)c2ccc(Oc3ccc([N+](=O)[O-])cc3)cc2C1=O,> 51.3
15,COc1cccc(C2/C(=C(/O)c3ccc4c(c3)CC(C)O4)C(=O)C(=O)N2CC2CCCO2)c1 (stereo not given),64.7
16,COCCNc1nnc(Cc2ccc(OC)c(OC)c2)c(=O)[nH]1,> 48.1
17,Cc1ccc(C)c(NC(=S)N2CCC(NC(=O)c3ccco3)CC2)c1,45.4
18,Cc1c(C(=O)NN2CCOCC2)cccc1[N+](=O)[O-],> 39.8
19,COC(=O)[C@@H](NC(=O)N1CCC(Cc2ccccc2)CC1)C(C)C,> 49.9
20,O=C(O)/C=C/c1cccc(NC(=O)Nc2ccc([N+](=O)[O-])cc2)c1,> 49.1
